Data reported in patent publication US10683293B2, “Optionally fused heterocyclyl-substituted derivatives of pyrimidine useful for the treatment of inflammatory, metabolic, oncologic and autoimmune diseases” (NUEVOLUTION A/S, priority 2014, dated 2020).

biological target: T1, human RORγt (Ligand Binding Domain) (Homo sapiens, UniProt P51449); assay: Fluorescence Polarization (FP) Assay; settings: 100 nM human RORγt LBD, 25 nM TAMRA probe, values are activity range bounds
T1 construct: purchased Crelux (Planegg, Germany) batch no PC5032-1
T1 sequence (P51449 269-508 limits assumed): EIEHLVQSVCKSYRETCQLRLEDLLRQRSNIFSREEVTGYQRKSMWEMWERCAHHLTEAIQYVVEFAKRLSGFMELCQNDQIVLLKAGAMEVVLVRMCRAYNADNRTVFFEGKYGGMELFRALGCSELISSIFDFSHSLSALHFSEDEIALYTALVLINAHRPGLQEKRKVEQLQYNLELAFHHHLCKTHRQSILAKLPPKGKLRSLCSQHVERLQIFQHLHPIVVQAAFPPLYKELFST
Protocol: The activity of the compounds was evaluated using a Fluorescence Polarization (FP) Assay and, RORγ Reporter assay (also referred to as Gal4 assay). The FP assay is an in vitro assay monitoring binding within the ligand binding pocket. The RORγ and the Th17 assays (another suitable assay) are both cell-based assays monitoring functional activity of the compound assayed.
Fluorescence Polarization (FP) Assay
The total volume was 25 μl, in a black Perkin Elmer OptiPlate. As negative control, 1 μl DMSO was used. […] The probe is a fluorescently labeled (TAMRA) RORγt ligand identified by Nuevolution with a total molecular weight of 910 g/mole as shown in Graph A in FIG. 1.

Row | Structure (SMILES) | IC50
1 | NC(=O)Cc1ccc(CNc2ncnc(N(Cc3cccc(-c4cccnc4)c3)C3CC3)c2F)cc1 [Example A130, 2-[4-[[[6-[cyclopropyl-[[3-(3-pyridyl)phenyl]methyl]amino]-5-fluoro-pyrimidin-4-yl]amino]methyl]phenyl]acetamide] | < 500 nM
2 | CC(c1cccc2ccccc12)N(C)c1ncnc(NCc2ccc(CC(N)=O)cc2)c1F (centres unmarked) [Example A131, 2-[4-[[[5-fluoro-6-[methyl-[1-(1-naphthyl)ethyl]amino]pyrimidin-4-yl]amino]methyl]phenyl]acetamide] | < 500 nM
3 | CN(Cc1ccc(-n2cccn2)cc1)c1ncnc(NCC2(CCO)CCOCC2)c1F [Example A132, 2-[4-[[[5-fluoro-6-[methyl-[(4-pyrazol-1-ylphenyl)methyl]amino]pyrimidin-4-yl]amino]methyl]tetrahydropyran-4-yl]ethanol] | < 10000 nM
4 | CN(Cc1ccc(-n2cccn2)cc1)c1ncnc(NCC2(CS(C)(=O)=O)CCOCC2)c1F [Example A133, 5-fluoro-N6-methyl-N4-[[4-(methylsulfonylmethyl)tetrahydro-pyran-4-yl]methyl]-N6-[(4-pyrazol-1-ylphenyl)methyl]pyrimidine-4,6-diamine] | < 2000 nM
5 | CN(Cc1ccc(-n2cccn2)cc1)c1ncnc(NCc2ccc(-c3nnn[nH]3)cc2)c1F [Example A134, 5-fluoro-N6-methyl-N6-[(4-pyrazol-1-ylphenyl)methyl]-N4-[[4-(1H-tetrazol-5-yl)phenyl]methyl]pyrimidine-4,6-diamine] | < 2000 nM
6 | CN(Cc1ccc(-n2cccn2)cc1)c1ncnc(NCc2ccc(S(N)(=O)=O)cc2)c1F [Example A135, 4-[[[5-fluoro-6-[methyl-[(4-pyrazol-1-ylphenyl)methyl]amino]pyrimidin-4-yl]amino]methyl]benzenesulfonamide] | < 10000 nM
7 | COCCNS(=O)(=O)c1ccc(CNc2ncnc(N(C)Cc3ccc(-n4cccn4)cc3)c2F)cc1 [Example A136, 4-[[[5-fluoro-6-[methyl-[(4-pyrazol-1-ylphenyl)methyl]amino]pyrimidin-4-yl]amino]methyl]-N-(2-methoxyethyl)benzenesulfonamide] | < 2000 nM
8 | CN(Cc1ccc(-n2cccn2)cc1)c1ncnc(NCc2ccc(S(=O)(=O)O)cc2)c1F [Example A137, 4-[[[5-fluoro-6-[methyl-[(4-pyrazol-1-ylphenyl)methyl]amino]pyrimidin-4-yl]amino]methyl]benzenesulfonic acid] | < 500 nM
9 | COc1ccc(CN(C)c2ncnc(NCc3ccc(CC(N)=O)cc3)c2F)c(OC)c1 [Example A139, 2-[4-[[[6-[(2,4-dimethoxyphenyl)methyl-methyl-amino]-5-fluoro-pyrimidin-4-yl]amino]methyl]phenyl]acetamide] | < 2000 nM
10 | CN(Cc1cccc(-n2cccn2)c1)c1ncnc(NCC2(O)CCS(=O)(=O)CC2)c1F [Example A140, 4-[[[5-fluoro-6-[methyl-[(3-pyrazol-1-ylphenyl)methyl]amino]pyrimidin-4-yl]amino]methyl]-1,1-dioxo-thian-4-ol] | < 10000 nM
11 | CN(Cc1cccc(-n2cccn2)c1)c1ncnc(NCC2CCOCC2)c1F [Example A141, 5-fluoro-N6-methyl-N6-[(3-pyrazol-1-ylphenyl)methyl]-N4-(tetrahydropyran-4-ylmethyl)pyrimidine-4,6-diamine] | < 2000 nM
12 | CN(Cc1cccc(-n2cccn2)c1)c1ncnc(NCc2ccc(CS(C)(=O)=O)cc2)c1F [Example A144, 5-fluoro-N6-methyl-N4-[[4-(methylsulfonylmethyl)phenyl]methyl]-N6-[(3-pyrazol-1-ylphenyl)methyl]pyrimidine-4,6-diamine] | < 10000 nM
13 | CN1CCC(NC(=O)CC2(CNc3ncnc(N(Cc4ccc(C(F)(F)F)cc4)C4CC4)c3F)CCOCC2)C1 (centres unmarked) [Example A152, 2-[4-[[[6-[cyclopropyl-[[4-(trifluoromethyl)phenyl]methyl]amino]-5-fluoro-pyrimidin-4-yl]amino]methyl]tetrahydropyran-4-yl]-N-(1-methylpyrrolidin-3-yl)acetamide] | < 10000 nM
14 | CN(C)CCCNC(=O)CC1(CNc2ncnc(N(Cc3ccc(C(F)(F)F)cc3)C3CC3)c2F)CCOCC1 [Example A153, 2-[4-[[[6-[cyclopropyl-[[4-(trifluoromethyl)phenyl]methyl]amino]-5-fluoro-pyrimidin-4-yl]amino]methyl]tetrahydropyran-4-yl]-N-[3-(dimethylamino)propyl]acetamide] | < 10000 nM
15 | O=C(O)CNC(=O)CC1(CNc2ncnc(N(Cc3ccc(C(F)(F)F)cc3)C3CC3)c2F)CCOCC1 [Example A154, 2-[[2-[4-[[[6-[cyclopropyl-[[4-(trifluoromethyl)phenyl]methyl]amino]-5-fluoro-pyrimidin-4-yl]amino]methyl]tetrahydropyran-4-yl]acetyl]amino]acetic acid] | < 2000 nM
16 | O=C(O)CCNC(=O)CC1(CNc2ncnc(N(Cc3ccc(C(F)(F)F)cc3)C3CC3)c2F)CCOCC1 [Example A155, 3-[[2-[4-[[[6-[cyclopropyl-[[4-(trifluoromethyl)phenyl]methyl]amino]-5-fluoro-pyrimidin-4-yl]amino]methyl]tetrahydropyran-4-yl]acetyl]amino]propanoic acid] | < 1000 nM
17 | COc1cc(CN(c2ncnc(NCc3ccc(CC(N)=O)cc3)c2F)C2CC2)ccc1Cl [Example A156, 2-[4-[[[6-[(4-chloro-3-methoxy-phenyl)methyl-cyclopropyl-amino]-5-fluoro-pyrimidin-4-yl]amino]methyl]phenyl]acetamide] | < 500 nM
18 | Cc1ccc(CNc2ncnc(N(Cc3ccc(C(F)(F)F)cc3)C3CC3)c2F)nn1 [Example A157, N4-cyclopropyl-5-fluoro-N6-[(6-methylpyridazin-3-yl)methyl]-N4-[[4-(trifluoromethyl)phenyl]methyl] pyrimidine-4,6-diamine] | < 500 nM
19 | CS(=O)(=O)N1CCC(CNc2ncnc(N(Cc3ccc(C(F)(F)F)cc3)C3CC3)c2F)C1 (centres unmarked) [Example A158, N4-cyclopropyl-5-fluoro-N6-[(1-methylsulfonylpyrrolidin-3-yl)methyl]-N4-[[4-(trifluoromethyl)phenyl]methyl] pyrimidine-4,6-diamine] | < 500 nM
20 | Cc1cnc(CNc2ncnc(N(Cc3ccc(C(F)(F)F)cc3)C3CC3)c2F)cn1 [Example A159, N4-cyclopropyl-5-fluoro-N6-[(5-methylpyrazin-2-yl)methyl]-N4-[[4-(trifluoromethyl)phenyl]methyl] pyrimidine-4,6-diamine] | < 500 nM
21 | CS(=O)(=O)N1CC(CNc2ncnc(N(Cc3ccc(C(F)(F)F)cc3)C3CC3)c2F)C1 [Example A160, N4-cyclopropyl-5-fluoro-N6-[(1-methylsulfonylazetidin-3-yl)methyl]-N4-[[4-(trifluoromethyl)phenyl]methyl] pyrimidine-4,6-diamine] | < 500 nM
22 | NC(=O)Cc1ccc(CNc2ncnc(N(Cc3cccc(-n4cncn4)c3)C3CC3)c2F)cc1 [Example A161, 2-[4-[[[6-[cyclopropyl-[[3-(1,2,4-triazol-1-yl)phenyl]methyl]amino]-5-fluoro-pyrimidin-4-yl]amino]methyl]phenyl]acetamide] | < 500 nM
23 | NC(=O)Cc1ccc(CNc2ncnc(N(Cc3ccc4c(c3)OCC(=O)N4)C3CC3)c2F)cc1 [Example A162, 2-[4-[[[6-[cyclopropyl-[(3-oxo-4H-1,4-benzoxazin-7-yl)methyl]amino]-5-fluoro-pyrimidin-4-yl]amino]methyl]phenyl]acetamide] | < 500 nM
24 | N#Cc1cccc(CN(c2ncnc(NCc3ccc(CC(N)=O)cc3)c2F)C2CC2)c1 [Example A163, 2-[4-[[[6-[(3-cyanophenyl)methyl-cyclopropyl-amino]-5-fluoro-pyrimidin-4-yl]amino]methyl]phenyl]acetamide] | < 500 nM
25 | CS(=O)(=O)N1CCC(CNc2ncnc(N(Cc3ccc(C(F)(F)F)cn3)C3CC3)c2F)C1 (centres unmarked) [Example A166, N6-cyclopropyl-5-fluoro-N4-[(1-methylsulfonylpyrrolidin-3-yl)methyl]-N6-[[5-(trifluoromethyl)-2-pyridyl]methyl]pyrimidine-4,6-diamine] | < 10000 nM
26 | CS(=O)(=O)N1CC(CNc2ncnc(N(Cc3ccc(C(F)(F)F)cn3)C3CC3)c2F)C1 [Example A173, N4-cyclopropyl-5-fluoro-N6-[(1-methylsulfonylazetidin-3-yl)methyl]-N4-[[5-(trifluoromethyl)-2-pyridyl]methyl]pyrimidine-4,6-diamine] | < 10000 nM
27 | NC(=O)Cc1ccc(CNc2ncnc(N(Cc3ccc(C(F)(F)F)cc3)C3CC3)c2F)nc1 [Example A177, 2-[6-[[[6-[cyclopropyl-[[4-(trifluoromethyl)phenyl]methyl]amino]-5-fluoro-pyrimidin-4-yl]amino]methyl]-3-pyridyl]acetamide] | < 2000 nM
28 | Cc1cc(CN(c2ncnc(NCC3CCN(S(C)(=O)=O)CC3)c2F)C2CCCCC2)n(C)n1 [Example A180, N6-cyclohexyl-N6-[(2,5-dimethylpyrazol-3-yl)methyl]-5-fluoro-N4-[(1-methylsulfonyl-4-piperidyl)methyl]pyrimidine-4,6-diamine] | < 10000 nM
29 | O=C(O)C[C@H](Nc1ncnc(N(Cc2ccc(C(F)(F)F)cc2)C2CC2)c1F)c1ccccc1 [Example A182, (3S)-3-[[6-[cyclopropyl-[[4-(trifluoromethyl)phenyl]methyl]amino]-5-fluoro-pyrimidin-4-yl]amino]-3-phenyl-propanoic acid] | < 10000 nM
